Measured values published in patent US20040023884A1, “Biologically active peptides from functional domains of bactericidal/permeability-increasing protein and uses thereof” (priority 1993, published 2004).
Square brackets hold non-standard residues; d marks the D form. Ends that are not written are not given here. Peptide text beside a SMILES is read from it. 1Nal = N[C@@H](Cc1cccc2ccccc12)C(=O)O

Legend:
RAW 264.7 cells = test: LPS neutralization cellular proliferation assay, RAW 264.7 cells; assay type: cell-based, mouse
Protocol: In this assay, mouse RAW 264.7 cells (ATCC Accession No. T1B71), maintained in RPMI 1640 media (GIBCO), supplemented with 10 mM HEPES buffer (pH 7.4), 2 mM L-glutamine, penicillin (100U/mL), streptomcin (100 μg/mL), 0.075% sodium bicarbonate, […] 2-mercaptoethanol and 10% fetal bovine serum (Hyclone, Inc., Logan, Utah), were first induced by incubation in the presence of 50U/mL recombinant mouse y-interferon (Genzyme, Cambridge, Mass.) for 24 h prior to assay. Induced cells were then mechanically collected and centrifuged at 500×g at 4° C. and then resuspended in 50 mL RPMI 1640 media (without supplements), re-centrifuged and again resuspended in RPMI 1640 media (without supplements). The cells were counted and their concentration adjusted to 2×10^5 cells/mL and 100 μL aliquots were added to each well of a 96-well microtitre plate. The cells were then incubated for about 15 hours with E. coli O113 LPS (Control Standard. Assoc. of Cape Cod. Woods Hole, Mass.), which was added in 100 μL/well aliquots at a concentration of […] in serum-free RPMI 1640 media (this concentration being the result of titration experiments in which LPS concentration was varied between 50 pg/mL and 100 ng/mL). This incubation was performed in the absence or presence of BPI functional domain peptides in varying concentrations between 25 ng/mL and 50 μg/mL. Recombinant human BPI was used as a positive control at a concentration of 1 μg/mL. Cell proliferation was quantitatively measured by the addition of 1 μCi/well [^3H]-thymidine 5 hours after the time of initiation of the assay. After the 15-hour incubation, labeled cells were harvested onto glass fiber filters with a cell harvester (Inotech Biosystems, EQ-384, Sample Processing and Filter Counting System, Lansing, Mich.).

Candida albicans = assay type: cell-based
[1] = tested on: rough mutant E. coli J5 bacteria; test: Radial diffusion bactericidal assay, E. coli J5; assay type: cell-based; details: radial diffusion; PROBIT analysis; E. coli J5 (rough)
Method in brief: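 Wells received 5 or 10 μL of BPI fragment, pre-incubated 3 h at 37 °C. The underlayer agarose carried washed log-phase organisms at 4×10^6 CFU/mL.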

[2] = tested on: E. coli 0111:B4 (smooth) bacteria; test: Radial diffusion bactericidal assay, E. coli 0111:B4; assay type: cell-based; details: radial diffusion; PROBIT analysis; E. coli O111:B4 (smooth)
Staphylococcus aureus = test: Radial diffusion bactericidal assay, Staphylococcus aureus; assay type: cell-based; details: radial diffusion; PROBIT analysis; S. aureus
C. albicans = test: Radial diffusion fungicidal assay, Candida albicans; assay type: cell-based; details: radial diffusion
[3] = 3H-heparin binding assay (affinity and capacity); details: for Heparin Capacity: heparin bound at saturation; for Kd: read-out: Heparin Affinity
Method in brief: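 Bound 3H-heparin was counted by liquid scintillation after 1 h incubation at 4 °C with fragments immobilised on PVDF-bottomed wells, then washing in blocking buffer. Signal was corrected for BSA-related background, and varying amounts of rBPI23 were used as positive control.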

| Compound | EC50 (peptide concentration at which the growth inhibitory effect of LPS was reversed by 50%) (RAW 264.7 cells) | IC50 (peptide concentration at which RAW cell growth was inhibited by 50%) (RAW 264.7 cells) | MIC C. alb (Candida albicans) | pmol added to well to achieve a 30 mm^2 bactericidal zone, E. coli J5 [1] | pmol added to well to achieve a 30 mm^2 bactericidal zone, E. coli O111:B4 [2] | pmol added to well to achieve a 30 mm^2 bactericidal zone, S. aureus (Staphylococcus aureus) | C. albicans: pmol required for 30 mm^2 zone (C. albicans) | Heparin Capacity [3] | Kd [3] |
| --- | --- | --- | --- | --- | --- | --- | --- | --- | --- |
| CC(C)C[C@H](NC(=O)[C@H](Cc1ccccc1)NC(=O)[C@H](CCCNC(=N)N)NC(=O)[C@H](Cc1cccc2ccccc12)NC(=O)[C@H](Cc1cccc2ccccc12)NC(=O)[C@H](C)NC(=O)[C@H](CCCCN)NC(=O)[C@H](Cc1c[nH]c2ccccc12)NC(=O)[C@H](CCCCN)NC(=O)[C@H](CCCCN)NC(=O)[C@H](CC(C)C)NC(=O)[C@H](Cc1ccccc1)NC(=O)[C@H](CCCNC(=N)N)NC(=O)[C@H](Cc1cccc2ccccc12)NC(=O)[C@H](Cc1cccc2ccccc12)NC(=O)[C@H](C)NC(=O)[C@H](CCCCN)NC(=O)[C@H](Cc1c[nH]c2ccccc12)NC(=O)[C@H](CCCCN)NC(=O)[C@H](CCCCN)NC(=O)[C@H](CC(C)C)NC(=O)[C@H](Cc1ccccc1)NC(=O)[C@H](CCCNC(=N)N)NC(=O)[C@H](Cc1cccc2ccccc12)NC(=O)[C@H](Cc1cccc2ccccc12)NC(=O)[C@H](C)NC(=O)[C@H](CCCCN)NC(=O)[C@H](Cc1c[nH]c2ccccc12)NC(=O)[C@@H](N)CCCCN)C(=O)N[C@@H](CCCCN)C(=O)O [BPI.157] (H-KWKA[1Nal][1Nal]RFLKKWKA[1Nal][1Nal]RFLKKWKA[1Nal][1Nal]RFLK-OH; N-terminus and C-terminus assumed) | comparable to BPI.29 | lower IC5 | >100.00 µg/mL |  |  |  |  |  |  |
| CKSKVGWLIQLFHKKC [BPI.137] |  |  |  | 1,390.00 pmol | 87,980.00 pmol | b (no detectable activity up to 5 μg/well) | >2285.73 pmol |  |  |
| KSKVFWLIQLFHKK [BPI.95] |  |  |  | 330.88 pmol | 2,809.70 pmol | b (no detectable activity up to 5 μg/well) | >1397.64 pmol | 224.5 ng | 551 nM |
| KSKVGWLIQLFFKK [BPI.94] |  |  |  | 922.54 pmol | 3,658.80 pmol | 9,446.60 pmol | >922.54 pmol | 216.1 ng | 407 nM |
| KSKVGWLIQLFLKK [BPI.87] |  |  |  | 188.72 pmol | 23,949.00 pmol | 868,991.70 pmol | >1535.78 pmol | 280.0 ng | 575 nM |
| KWAFAKKQKKRLKRQWLKKF [BPI.150] |  |  |  | 220.00 pmol | 3,610.00 pmol | b (no detectable activity up to 5 μg/well) | >2380.67 pmol |  |  |
| KWKAAARFLKKSKVGWLIQLFHKK [BPI.145] |  |  |  | 250.00 pmol | 9,561.00 pmol | b (no detectable activity up to 5 μg/well) | >1886.58 pmol |  |  |
